In US20090292124A1, “Therapeutic Agent for Nausea and/or Vomiting” (TORAY INDUSTRIES, INC. a corporation of Japan, priority 2005, published 2009):
Marks after values point to notes of the source that are not given here.

What was measured:
Assay type in all cases: in vivo
[1] = Test of brain penetration (Reference Example 1, intravenous); details: rat, Jcl-SD male rats, non-fasting, 0.5 mg/kg intravenously, brain and plasma 15 minutes after administration, n=2
Protocol: Jcl-SD male rats of 7 weeks of age
The test compound in an amount of 1.0 mg was dissolved in 0.8 mL of N,N-dimethylacetamide, and 0.8 mL of propylene glycol was added thereto.
(§1) The test compound was intravenously administered to non-fasting rats (0.5 mg/0.8 mL/kg, n=2) through the tail vein, and total blood was collected from the lower aorta 15 minutes after the administration. An aliquot of the blood was centrifuged (3000 rpm, 10 minutes, 4° C.), and the concentration of unchanged compound in the obtained blood plasma was measured by LC/MS/MS method.
(§2) After the above-described collection of the total blood, the brain was enucleated from each rat, and homogenized to prepare a 25% homogenate, followed by measurement of the concentration of unchanged compound by LC/MS/MS method.
From the obtained concentrations, Kp values were determined. As a result, the Kp value of NIT was 1.30.

ferrets = experiment: Influence on nausea and vomiting induced by morphine; details: test substance 5 mg/kg 30 min before morphine 0.6 mg/kg s.c.; for Appearance Frequency / Duration / Latent Time: mean ± standard error; for Latent Time: no symptom counted as 30 min; for Number of Individuals Presenting Symptoms (Number of Individuals Presenting Symptoms/Number of Cases): observed 30 min
Protocol: About 30 minutes after feeding, ferrets were transferred to observation cages, and the test substances were administered, respectively. Each test substance was dissolved in 5% xylitol, and administered at a dose of 5 mg/kg. Thirty minutes after administration of the test solution, 0.6 mg/kg of morphine was subcutaneously administered at a volume of 1 mL/kg, and the symptoms of vomiting were visually observed until 30 minutes after the administration of morphine.
The appearance frequency, latent time (the time from the administration of morphine to the first appearance of the symptom) and duration (the time from the first vomiting to the final vomiting) of nausea (rhythmical contractile motion of abdomen), of vomiting (vomiting behavior excreting vomit or analogous behavior thereof) and of the total of nausea and vomiting were counted, respectively.

[2] = Test of brain penetration (Test Example 2, oral); details: rat, Crj:CD(SD)IGS male rats, non-fasting, 30 mg/kg orally, brain and plasma 2 hours after administration, n=3
Protocol: Crj:CD(SD)IGS male rats of 7-8 weeks of age
Each of the test compounds in an amount of 90 mg was suspended in 0.5% methylcellulose 1500 cp to a total volume of 6 mL.
as §1, with “Each” for “The”, “orally” for “intravenously”, “(30 mg/2” for “(0.5 mg/0.8”, “n=3),” for “n=2) through the tail vein,”, “2 hours” for “15 minutes”
as §2
From the obtained concentrations, Kp values were determined.

`Oc1ccc2c3c1O[C@H]1c4[nH]c5ccccc5c4C[C@@]4(O)[C@@H](C2)N(CC2CC2)CC[C@]314` [NIT, naltrindole] showed a Kp at 0.25 h [1] of 1.3.

For `Cc1ccc(/C=C2\C[C@@]3(O)[C@H]4Cc5ccc(O)c6c5[C@@]3(CCN4CC3CC3)[C@@H](O6)C2=O)cc1` [Compound 3], the “Appearance Frequency” value (ferrets; Nausea + Vomiting) was 0 ± 0, the Duration (ferrets; Nausea + Vomiting) was 0 ± 0 min and the “Latent Time” value (ferrets; Nausea + Vomiting) was 30 ± 0 min. For the same compound, the “Number of Individuals Presenting Symptoms (Number of Individuals Presenting Symptoms/Number of Cases)” value (ferrets; Nausea + Vomiting) was 0/6##, the “Appearance Frequency” value (ferrets; Nausea) was 0 ± 0 and the Duration (ferrets; Nausea) was 0 ± 0 min. The “Latent Time” value (ferrets; Nausea) was 30 ± 0 min, the “Number of Individuals Presenting Symptoms (Number of Individuals Presenting Symptoms/Number of Cases)” value (ferrets; Nausea) was 0/6## and the “Appearance Frequency” value (ferrets; Vomiting) was 0 ± 0. For the same compound, the Duration (ferrets; Vomiting) was 0 ± 0 min, the “Latent Time” value (ferrets; Vomiting) was 30 ± 0 min and the “Number of Individuals Presenting Symptoms (Number of Individuals Presenting Symptoms/Number of Cases)” value (ferrets; Vomiting) was 0/6. For the same compound, the Kp at 2 h [2] was 0.46.

In the case of `Cn1c2c(c3ccccc31)C[C@@]1(O)[C@H]3Cc4ccc(O)c5c4[C@@]1(CCN3CC1CC1)[C@H]2O5` [Compound 1], the “Appearance Frequency” value (ferrets; Nausea + Vomiting) is reported as 0 ± 0, the Duration (ferrets; Nausea + Vomiting) is reported as 0 ± 0 min and the “Latent Time” value (ferrets; Nausea + Vomiting) is reported as 30 ± 0 min. The “Number of Individuals Presenting Symptoms (Number of Individuals Presenting Symptoms/Number of Cases)” value (ferrets; Nausea + Vomiting) was 0/6##, the “Appearance Frequency” value (ferrets; Nausea) was 0 ± 0 and the Duration (ferrets; Nausea) was 0 ± 0 min. For the same compound, the “Latent Time” value (ferrets; Nausea) was 30 ± 0 min, the “Number of Individuals Presenting Symptoms (Number of Individuals Presenting Symptoms/Number of Cases)” value (ferrets; Nausea) was 0/6## and the “Appearance Frequency” value (ferrets; Vomiting) was 0 ± 0. For the same compound, the Duration (ferrets; Vomiting) was 0 ± 0 min, the “Latent Time” value (ferrets; Vomiting) was 30 ± 0 min and the “Number of Individuals Presenting Symptoms (Number of Individuals Presenting Symptoms/Number of Cases)” value (ferrets; Vomiting) was 0/6.

In the case of `CCOC(=O)c1ccc2c3c([nH]c2c1)[C@@H]1Oc2c(O)ccc4c2[C@@]12CCN(CC1CC1)[C@H](C4)[C@]2(O)C3` [Compound 2], the “Appearance Frequency” value (ferrets; Nausea + Vomiting) is reported as 0 ± 0, the Duration (ferrets; Nausea + Vomiting) is reported as 0 ± 0 min and the “Latent Time” value (ferrets; Nausea + Vomiting) is reported as 30 ± 0 min. The “Number of Individuals Presenting Symptoms (Number of Individuals Presenting Symptoms/Number of Cases)” value (ferrets; Nausea + Vomiting) was 0/6##, the “Appearance Frequency” value (ferrets; Nausea) was 0 ± 0 and the Duration (ferrets; Nausea) was 0 ± 0 min. The “Latent Time” value (ferrets; Nausea) was 30 ± 0 min, the “Number of Individuals Presenting Symptoms (Number of Individuals Presenting Symptoms/Number of Cases)” value (ferrets; Nausea) was 0/6## and the “Appearance Frequency” value (ferrets; Vomiting) was 0 ± 0. The Duration (ferrets; Vomiting) was 0 ± 0 min, the “Latent Time” value (ferrets; Vomiting) was 30 ± 0 min and the “Number of Individuals Presenting Symptoms (Number of Individuals Presenting Symptoms/Number of Cases)” value (ferrets; Vomiting) was 0/6. It also gave a Kp at 2 h [2] of 0.18.
